Measurements reported in PubChem BioAssay (NCI).
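Five compound concentrations were applied to cells in 96-well plates for 48 hours; endpoints were derived by simple linear interpolation of the resulting dose-response curve. The concentration for full growth arrest is given as TGI.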

Columns and labels:
Experiment in all cases: growth of human tumour cells (NCI), 48 h
ACHN renal = tested on: ACHN renal
DU-145 prostate = tested on: DU-145 prostate
HCC-2998 colon = tested on: HCC-2998 colon
HCT-15 colon = tested on: HCT-15 colon
HT29 colon = tested on: HT29 colon
IGROV1 ovarian = tested on: IGROV1 ovarian
MCF7 breast = tested on: MCF7 breast
MOLT-4 leukemia = tested on: MOLT-4 leukemia
NCI-H23 lung = tested on: NCI-H23 lung
SF-268 CNS = tested on: SF-268 CNS
SK-MEL-2 melanoma = tested on: SK-MEL-2 melanoma
SK-MEL-5 melanoma = tested on: SK-MEL-5 melanoma
SW-620 colon = tested on: SW-620 colon
UACC-257 melanoma = tested on: UACC-257 melanoma

Measured: TGI

NC(CCOCCP(=O)(O)O)C(=O)O (centres undefined)
> 100 µM: all assays above
